What was measured:
[1] = test system: U87MG; assay: Matrigel cell invasion assay; assay type: cell-based, human; details: Homo sapiens, U-87 MG, Conc. 10 µM
[2] = test system: HPSE-1; assay: Real-Time Quantitative PCR of pro-angiogenic genes in HT1080 cells; assay type: cell-based, human; details: 24 h, Conc 10.0 uM
Procedure: To evaluate the effect of heparanase inhibitors on the tumor transcription of genes encoding for proangiogenic factors, such as FGF1/2, VEGF, MMP-9, HSPE-1, the relative mRNA levels were analyzed by quantitative Real-Time Quantitative PCR. To perform the assay, HT1080 (human fibrosarcoma) cells were cultured in complete medium containing 10%FCS (fetal calf serum). Cells were plated in 24-well plates and treated at fixed concentration (i.e., highest non-toxic concentration) of test compounds. After 24 h, cells were detached, collected and total RNA extracted by RNeasy Mini Kit (QIAGEN). Following reverse transcription step, FGF1/2, VEGF, MMP-9, HSPE-1 mRNA levels, were quantified by qPCR using the advanced Universal SYBR Green Supermix (Bio Rad) and ABI PRISM 7900HT Thermal Cycler System (Perkin Elmer), according to the manufacturer's instructions. […] Relative levels of RNA were calculated using the ddCt method. Standard curve and sample data were run in duplicate.

[3] = test system: U87MG; assay: Cell adhesion assay on matrigel coated wells; assay type: cell-based, human; details: Conc. 10 µM, percent of adhesion with respect to the control (100%)
[4] = molecular target: T1, heparanase (Homo sapiens, UniProt Q9Y251); assay: AGA*IA assay: heparanase-catalyzed fondaparinux cleavage, colorimetric (WST-1); assay type: biochemical; details: 2.5 nM heparanase, 100 µM fondaparinux, pH 5.0, 3 h at 37°C; class symbols; read-out: AGAIA assay (IC50)
T1 construct: 100 µM fondaparinux, 2.5 nM heparanase and serial dilutions of test compounds
T1 sequence (Q9Y251 158-543 limits assumed): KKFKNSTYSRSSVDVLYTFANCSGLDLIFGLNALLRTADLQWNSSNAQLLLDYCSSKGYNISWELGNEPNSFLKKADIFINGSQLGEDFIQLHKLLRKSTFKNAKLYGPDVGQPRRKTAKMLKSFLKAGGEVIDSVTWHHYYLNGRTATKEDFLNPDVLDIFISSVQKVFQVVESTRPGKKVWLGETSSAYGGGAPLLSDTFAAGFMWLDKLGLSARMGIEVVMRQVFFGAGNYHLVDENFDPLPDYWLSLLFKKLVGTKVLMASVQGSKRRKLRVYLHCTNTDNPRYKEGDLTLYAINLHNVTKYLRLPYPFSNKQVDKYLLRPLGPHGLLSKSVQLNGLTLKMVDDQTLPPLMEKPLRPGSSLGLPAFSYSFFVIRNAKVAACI
T1 sequence (Q9Y251 36-109 limits assumed): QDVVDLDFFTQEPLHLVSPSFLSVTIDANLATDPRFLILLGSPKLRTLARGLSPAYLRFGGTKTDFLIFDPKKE
Procedure: All compounds were tested in a simple, accurate and robust microplate assay based on the cleavage of the synthetic heparin fragment, the pentasaccharide Fondaparinux (AGA*IA). This assay was originally developed by Hammond and coworkers [Hammond E, Li CP, Ferro V. Development of a colorimetric assay for heparanase activity suitable for kinetic analysis and inhibitor screening. […] Fondaparinux is cleaved by heparanase to generate a reducing disaccharide, which can be quantitatively measured via a colorimetric or a fluorescence assay, the last by the fluorescent sensor polymer-H [Schiemann S, Lühn S, Alban S. Development of both colorimetric and fluorescence heparinase activity assays using fondaparinux as substrate.
The assay measures the appearance of the disaccharide product of heparanase-catalyzed fondaparinux cleavage colorimetrically using the tetrazolium salt WST-1. Assay was essentially performed as described with minor modifications. Briefly, NUNC ELISA 96-well plates were pre-treated with a solution of 4% BSA (bovin serum albumin) in phosphate-buffered saline containing 0.05% Tween 20 (PBST), for 2 h at 37°C, then washed three times with PBST, dried by tapping on paper towel and stored at -20°C. Before use, once again, the plates were washed with PBST.
Then, the absorbance at 560 nm was measured through a microplate reader (Victor 3, Perkin Elmer).
Finally, the measurements were corrected by subtracting both the reagent background and the inner absorbance value of test compound.

[5] = test system: U2OS; assay: Matrigel cell invasion assay; assay type: cell-based, human; design: key to Invasion Assay Inhibition (%) U2OS: +++: > 90%; ++: 50-90 %; +: < 50%; -: Not active; details: Conc. 10 µM
[6] = test system: HT1080 (human fibrosarcoma); assay: Matrigel cell invasion assay; assay type: cell-based; details: HT-1080, HT1080, Conc. 10 µM
Procedure: Heparanase inhibitors were then evaluated for their activity on the invasive potential of HT1080 (human fibrosarcoma) human cell lines, using the Matrigel cell invasion assay which allows to assess the cell invasion ability of malignant and normal cells.
Invasion assay was performed using BioCoat cell culture inserts (BioCoat 8.0µm PET Membrane 24 Well Permeable Supports, Corning). Filters were coated with 100 µl of 300 µg/ml Matrigel dissolved in coating buffer (0.01M Tris pH 8.0, 0.7% NaCl) (Becton-Dickinson Sciences). DMEM (Dulbecco's Modified Eagle's Medium) containing 5% FBS was added to the lower chambers. Cells were pre-treated with heparanase inhibitors for 24 h, detached and added to the upper chambers in media containing the inhibitors. Cells were allowed to invade for 24 h at 37°C in a CO2 incubator and then unmigrated cells were removed from the upper chamber with a cotton swab. The invading cells were fixed, stained with 0.1% crystal violet for 10 min at room temperature, photographed and counted under inverted microscope.
Test compounds were analyzed at fixed concentration for several fields, in duplicates. Activity of test compounds was compared to the reference compound. Activity of most interesting compound was confirmed in a second cell invasion assay. Data were expressed as the percent invasion with respect to cell migration through uncoated insert membrane. (Table 5)

[7] = test system: FGF-1; assay: Real-Time Quantitative PCR of pro-angiogenic genes in HT1080 cells; assay type: cell-based, human; details: 24 h, Conc 10.0 uM
Procedure: (§1) To evaluate the effect of heparanase inhibitors on the tumor transcription of genes encoding for proangiogenic factors, such as FGF1/2, VEGF, MMP-9, HSPE-1, the relative mRNA levels were analyzed by quantitative Real-Time Quantitative PCR. To perform the assay, HT1080 (human fibrosarcoma) cells were cultured in complete medium containing 10%FCS (fetal calf serum). Cells were plated in 24-well plates and treated at fixed concentration (i.e., highest non-toxic concentration) of test compounds. After 24 h, cells were detached, collected and total RNA extracted by RNeasy Mini Kit (QIAGEN). Following reverse transcription step, FGF1/2, VEGF, MMP-9, HSPE-1 mRNA levels, were quantified by qPCR using the advanced Universal SYBR Green Supermix (Bio Rad) and ABI PRISM 7900HT Thermal Cycler System (Perkin Elmer), according to the manufacturer's instructions. Appropriate no-RT and non-template controls were included in each 96-well PCR reaction, and dissociation analysis was performed at the end of each run to confirm the specificity of the reaction. Relative levels of RNA were calculated using the ddCt method. Standard curve and sample data were run in duplicate. In the Table a mean value is reported.

[8] = test system: FGF-2; assay: as above; assay type: cell-based, human; details: 24 h, Conc 10.0 uM
Procedure: as §1

[9] = test system: MMP-9; assay: as above; assay type: cell-based, human; details: 24 h, Conc 10.0 uM
Procedure: as §1

[10] = test system: VEGF; assay: as above; assay type: cell-based, human; details: 24 h, Conc 10.0 uM
Procedure: as §1

## COc1cc(N=Nc2cc(S(=O)(=O)O)cc3cc(S(=O)(=O)O)cc(O)c23)c(C)cc1NC(=O)Nc1cc(C)c(N=Nc2cc(S(=O)(=O)O)cc3cc(S(=O)(=O)O)cc(O)c23)cc1OC [SST0597]
[1]
  inhibition at 10 µM: < 50%
[2]
  Gene Expression (% mRNA vs. control) HPSE-1: ∼ 100%
[3]
  Adhesion Assay (%) U87MG: ∼ 23%
[4]
  IC50: 50 to 490 nM
[5]
  Invasion Assay Inhibition (%) U2OS: -
[6]
  inhibition at 10 µM: > 90%
[7]
  Gene Expression (% mRNA vs. control) FGF-1: ∼ 100%
[8]
  Gene Expression (% mRNA vs. control) FGF-2: ∼ 82%
[9]
  Gene Expression (% mRNA vs. control) MMP-9: ∼ 69%
[10]
  Gene Expression (% mRNA vs. control) VEGF: ∼ 100%
